Measured values: article PMC5397059, “Design, synthesis and structure-activity relationship study of wollamide B; a new potential anti TB agent” (PLoS ONE, 2017)
Converted amounts (≈) assume the structure as drawn. “And” between values parts separate entries of the source, which are not always exact repeats. Equal values may be shown once. Non-standard residues stand in square brackets, D forms with d. Residues, ends and D or L forms follow the SMILES beside them. dPhe(4-Cl) = N[C@H](Cc1ccc(Cl)cc1)C(=O)O; dOrn = NCCC[C@@H](N)C(=O)O

How the values were obtained:
[1] = Chemi-Luminescent Nitrogen Detection (CLND) kinetic solubility assay; type: physicochemical; settings: phosphate buffered saline, pH 7.4; kinetic aqueous solubility by CLND; read-out: Solubility
Method: GSK in-house kinetic solubility assay: 5 μL of 10mM DMSO stock solution diluted to 100 uL with pH7.4 phosphate buffered saline, equilibrated for 1 hour at room temperature, filtered through Millipore Multiscreen HTS-PCF filter plates (MSSL BPC).
The filtrate is quantified by suitably calibrated flow injection CLND. The standard error of the CLND solubility determination is ±30 μM, the upper limit of the solubility is 500 μM when working from 10 mM DMSO stock solution.

Chrom logD assay = type: physicochemical; settings: pH 7.4; read-out: Log D
Method: The Chromatographic Hydrophobicity Index (CHI) values were measured using a reversed phase HPLC column (50 x 2 mmx 3 μMGemini NX C18, Phenomenex, UK) with fast acetonitrile gradient at starting mobile phase of 100% pH = 7.4 buffer. CHI values are derived directly from the gradient retention times by using a calibration line obtained for standard compounds. The CHI value approximates to the volume % organic concentration when the compound elutes. CHI is linearly transformed into ChromlogD by the formula: ChromlogD=0.0857CHI−2.00
The average error of the assay is ±3 CHI unit or ±0.25 ChromlogD.

[2] = Artificial membrane permeability assay; type: in vitro ADME; settings: PAMPA, pH 7.4; passive artificial membrane permeability; read-out: Permeability
Method: A 8% L-a-phosphatidylcholine (EPC) in 1% cholesterol decane solution and a 1.8% EPC in cholesterol decane solution were prepared. The lipid solution was then aliquoted into 4 mL capped vials, sealed with parafilm and stored in-20°Cfreezer. The lipid solution was then transferred from 4 mL vial into 96-well half area plate (130μL/well) for daily assay usage. An additional 50 mM phosphate buffer with 0.5% encapsin, pH at 7.4 was prepared. The assay was run by the Biomek FX and Biomek software. The assay procedure is written under the Biomek software. For one batch assay, it can test two 96-well sample plates with at least one standard on each sample plate. The total assay time was about 4 hours. 3.5 μL of lipid solution were added to the filler plate, shaken for 12 seconds, and 250 μL of buffer were added to donor side and 100 μL to the receiver side. The assay plate was shaken for 45 min before adding the compounds. The test compounds (2.5 μL) were added to the donor side. The assay was run as replicates: Assay plates1 and 2 tested the sample plate 1; assay plates 3 and 4 tested the sample plate 2. The assay plates were then incubated and shaken for 3 hours at room temperature.
The assay samples were transferred to the HPLC analysis plates and 100 μL of receiver solution were aspirated and transferred to the receiver for analysis. Similarly, another 100 μL from the donor solution were transferred to the donor analysis plate.
Compound concentration was measured by HPLC at different time-points and permeability was established as nm/sec.

human serum albumin = human serum albumin (Homo sapiens, UniProt P02768); test: Human serum albumin (HSA) binding assay; type: in vitro ADME; settings: human serum albumin binding
Chain of human serum albumin (P02768 25-609): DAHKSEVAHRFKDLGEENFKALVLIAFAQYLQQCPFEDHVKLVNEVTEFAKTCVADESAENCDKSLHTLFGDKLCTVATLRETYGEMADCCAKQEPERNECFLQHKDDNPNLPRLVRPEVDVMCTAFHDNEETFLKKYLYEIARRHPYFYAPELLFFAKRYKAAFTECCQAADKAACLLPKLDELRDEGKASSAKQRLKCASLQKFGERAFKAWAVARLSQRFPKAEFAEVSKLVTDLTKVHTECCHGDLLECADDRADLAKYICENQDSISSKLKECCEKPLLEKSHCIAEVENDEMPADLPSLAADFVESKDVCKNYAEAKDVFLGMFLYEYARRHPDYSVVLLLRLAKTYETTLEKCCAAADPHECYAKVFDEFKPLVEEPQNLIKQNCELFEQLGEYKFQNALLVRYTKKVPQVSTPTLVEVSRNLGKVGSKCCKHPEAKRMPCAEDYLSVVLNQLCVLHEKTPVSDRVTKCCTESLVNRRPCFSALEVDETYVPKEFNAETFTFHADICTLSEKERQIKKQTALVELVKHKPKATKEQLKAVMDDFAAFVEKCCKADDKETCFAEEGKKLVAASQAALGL
Method: HSA binding assay was performed according to the method described by Valko K, et al. The basic principle of the measurements is the determination of gradient retention times of compounds on immobilized HSA column and converting these retention times to the appropriate property values using calibration. The peaks are detected and identified by UV. Calibration sets of compounds are measured before each run for which the HSA binding values are known. The retention times of the calibration set of compounds are plotted against these known values. The slope and the intercept of the obtained straight lines are used to calculate the HSA binding for the unknown compounds.

[3] = Plasma stability assay, mouse plasma; type: in vitro ADME; settings: CD1, mouse, plasma; 2 hours at 37°C, triplicates; read-out: Plasma stability (% remaining) Mouse
Method: (§1) Plasma stability of the compounds was assessed in CD1 mouse and human plasma. Plasma was spiked with 1 μL of a 10 mM of each test compound solution to produce a 1 uM incubation. Three separate 300 μl aliquots were then taken from each tube and incubated at 37°C for 2 h. At each time point (0, 15, 30, 60 and 120 min), 50 μL of plasma were collected from each sample. Samples were extracted by protein precipitation with 250 μL of 0.1% AcOH acetonitrile methanol 3–1 (v/v) containing 1uM internal standard and centrifuged for 10min at 2800rpm. Supernatants were collected prior the injection onto an LC-MS/MS system. Analyte/Internal standard peak area ratios were referenced to the zero time-point samples as 100% in order to determine the percentage of compound remaining for each time-point. Ln plots of the % remaining for each compound were used to determine the half-life for the plasma incubations.

[4] = Plasma stability assay, human plasma; type: in vitro ADME; settings: human, plasma; 2 hours at 37°C, triplicates; read-out: Plasma stability (% remaining) Human
Method: as §1

[5] = Intrinsic clearance (CLint) assay, mouse liver microsomes; type: in vitro ADME; settings: for % LBF Mouse: liver blood flow; for CLint Mouse: mouse liver microsomes; for half-life at 0.5 µM: mouse, pooled mouse liver microsomes, pH 7.4, read-out: Microsomal t1/2 Mouse; for CLpred Mouse: predicted metabolic clearance
Method: (§2) Pooled mouse and human liver microsomes are purchased from Xenotech. Microsomes (final protein concentration 0.5 mg/mL, MgCl2 (final concentration = 5 mM) and test compound (final substrate concentration = 0.5] M; final DMSO concentration = 0.5%) in 0.1 M phosphate buffer pH 7.4 are pre-incubated at 37°C prior to the addition of NADPH (final concentration = 1 mM) to initiate the reaction. The final incubation volume is 600 μL.
(§3) Control incubation is included for each compound tested where 0.1 M phosphate buffer pH 7.4 is added instead of NADPH (minus NADPH). One control compound is included with each species. All incubations are performed singularly for each test compound. Each compound is incubated for 45 minutes and samples (100 μL) of incubate are taken at 0, 5, 15, 30 and 45 min. The control (minus NADPH) is sampled at 30 min only. The reactions are stopped by the addition of sample to 200 μL Acetonitrile: Methanol 3:1 containing internal standard. The terminated samples are centrifuged at 2,500 rpm for 20 min at 4°C to precipitate the protein. Quantitative analysis: following protein precipitation, the samples were analyzed using specific LC-MS/MS conditions. Data analysis: from a plot of ln peak area ratio (compound peak area/internal standard peak area) against time, the gradient of the line was determined. Subsequently, half-life and intrinsic clearance were calculated using the equations below: Eliminationrateconstant(K)=(−gradient) Halflife(t1/2)(min)=0.693/K Cli(mL/min/gprotien)=V×0.693/t1/2 WhereV=Incubationvolume(mL/gmicrosomalprotien)

[6] = Intrinsic clearance (CLint) assay, human liver microsomes; type: in vitro ADME; settings: for half-life at 0.5 µM: human, pooled human liver microsomes, pH 7.4, human liver microsomes, read-out: Microsomal t1/2 Human; for % LBF Human: liver blood flow; for CLpred Human: predicted metabolic clearance; for % LBF given as a fraction (metabolic stability class): predicted hepatic clearance, microsomal stability
Method: as §2, §3

Mtb H37Rv = settings: duplicate; analogues

Structure (SMILES)	solubility kinetic at 1 h [1]	chromatographic logD (Chrom logD assay)	Papp at 3 h [2]	% HSA (human serum albumin)	remaining at 2 h, 1 uM [3]	remaining at 2 h, 1 uM [4]	% LBF Mouse [5]	CLint Mouse [5]	half-life at 0.5 µM [5]	CLpred Mouse [5]	CLint Human ([6]; human liver microsomes)	half-life at 0.5 µM [6]	% LBF Human [6]	CLpred Human [6]	MIC against Mtb H37Rv (Mtb H37Rv)	% LBF given as a fraction (metabolic stability class) [6]	Microsomal t1/2 Human ([6]; human liver microsomes)
CC(C)C[C@@H]1NC(=O)[C@@H](CC(C)C)NC(=O)[C@@H](CCCN)NC(=O)[C@H](CC(N)=O)NC(=O)[C@H](C(C)C)NC(=O)[C@H](Cc2c[nH]c3ccccc23)NC1=O [Compound 21c] (cyclo(LWVN[dOrn][dL]))	≥ 210 µg/mL	1.89	< 0.3 ×10⁻⁶ cm/s	79.64%	98%	97%	<16.83%	<0.50 mL/min/g tissue	> 2.31 h	<21.21 mL/min/kg	<0.40 mL/min/g tissue	> 2.31 h	<35.25%	<6.35 mL/min/kg	20 µM (≈ 14.8 µg/mL)	–	–
CC(C)C[C@@H]1NC(=O)[C@H](Cc2c[nH]c3ccccc23)NC(=O)[C@@H](CCCN)NC(=O)[C@H](C)NC(=O)[C@H](C(C)C)NC(=O)[C@@H](CC(C)C)NC1=O [Compound 4c] (cyclo(A[dOrn]WL[dL]V))	143 µg/mL (≈ 205 µM)	2	< 0.3 ×10⁻⁶ cm/s	83% and 82.76%	100%	95%	<16.27%	<0.48 mL/min/g tissue	> 2.31 h	<20.50 mL/min/kg	<0.40 mL/min/g tissue	> 2.31 h	<35.08%	6.31 mL/min/kg	20 µM (≈ 13.9 µg/mL)	–	–
CC(C)C[C@@H]1NC(=O)[C@H](C)NC(=O)[C@@H](CCCN)NC(=O)[C@H](CC(N)=O)NC(=O)[C@H](C(C)C)NC(=O)[C@@H](CC(C)C)NC1=O [Compound 3c] (cyclo(AL[dL]VN[dOrn]))	136 µg/mL (≈ 218 µM)	–	–	26% and 25.51%	92%	86%	<16.27%	<0.48 mL/min/g tissue	> 2.31 h	<20.50 mL/min/kg	<0.40 mL/min/g tissue	> 2.31 h	<35.08%	6.31 mL/min/kg	>80 µM	–	–
CC(C)C[C@H]1NC(=O)[C@H](C)NC(=O)[C@H](Cc2c[nH]c3ccccc23)NC(=O)[C@@H](CCCN)NC(=O)[C@H](CC(N)=O)NC(=O)[C@H](C(C)C)NC1=O [Compound 2c] (cyclo(A[dL]VN[dOrn]W))	> 134 µg/mL	0.94	< 1 ×10⁻⁶ cm/s	43.14%	93%	107%	<16.27%	<0.48 mL/min/g tissue	> 2.31 h	<20.50 mL/min/kg	<0.40 mL/min/g tissue	> 2.31 h	<35.08%	–	>80 µM	–	–
CC(C)C[C@@H]1NC(=O)[C@H](Cc2c[nH]c3ccccc23)NC(=O)[C@@H](CCCN)NC(=O)[C@@H](CCCN)NC(=O)[C@H](C(C)C)NC(=O)[C@@H](CC(C)C)NC1=O [Compound 9c] (cyclo(L[dL]V[dOrn][dOrn]W))	39 µg/mL (≈ 52.7 µM)	1.32	1 ×10⁻⁶ cm/s	86.46%	100%	100%	18.68%	0.57 mL/min/g tissue	1.95 h	23.53 mL/min/kg	0.45 mL/min/g tissue	2.03 h	38.08%	6.85 mL/min/kg	–	< 1/3	–
CC(C)C[C@@H]1NC(=O)[C@H](Cc2c[nH]c3ccccc23)NC(=O)[C@@H](CCCN)NC(=O)[C@H](CC(N)=O)NC(=O)[C@H](C(C)C)NC(=O)[C@@H](Cc2ccc(Cl)cc2)NC1=O [Compound 16c] (cyclo(L[dPhe(4-Cl)]VN[dOrn]W))	≥ 192 µg/mL	1.92	< 0.3 ×10⁻⁶ cm/s	92% and 92.54%	98%	99%	19.21%	0.59 mL/min/g tissue	1.89 h	24.21 mL/min/kg	2.43 mL/min/g tissue	< 0.5 h	76.78%	13.82 mL/min/kg	–	> ¾	0.3773 h
CC[C@H](C)[C@@H]1NC(=O)[C@@H](CC(C)C)NC(=O)[C@H](CC(C)C)NC(=O)[C@H](Cc2c[nH]c3ccccc23)NC(=O)[C@@H](CCCN)NC(=O)[C@H](CC(N)=O)NC1=O [Compound 7c] (cyclo(IN[dOrn]WL[dL]))	≥ 177 µg/mL	1.83	< 1 ×10⁻⁶ cm/s	76.35%	98%	99%	<16.27%	<0.48 mL/min/g tissue	> 2.31 h	<20.50 mL/min/kg	1.70 mL/min/g tissue	0.54 h	69.81%	12.57 mL/min/kg	–	–	–
